Results on two compounds are retold here after US10202652B2, “Methods and compositions of predicting activity of retinoid X receptor modulator” (Denovo Biopharma (Hangzhou) Ltd. Co., priority 2011, dated 2019).

Structures are written as SMILES.

Data set [1] concerns non small cell lung cancer. Description: Kaplan-Meier survival analysis of bexarotene-treated patients in the SPIRIT I and II phase III trials. Type of data set: in vivo, human (patients). Particulars: bexarotene plus chemotherapy, control arm 284 days. As to the method:
Bexarotene (also called Targretin, LGD1069) is a selective modulator of retinoid X receptors (RXRs) approved for treating refractory advanced-stage cutaneous T-cell lymphoma (1, 2). […] Consequently, two large phase III trials (SPIRIT I and SPIRIT II) were conducted to evaluate the efficacy and safety of standard chemotherapy agents with or without bexarotene as a first-line therapy in treating advanced non small cell lung cancer. […] A known side-effect of retinoid therapy is the elevation of serum lipids, and the majority of the bexarotene treated patients in the two SPIRIT trials developed hypertriglyceridemia, as expected. […] This intriguing correlation between survival and triglyceride level induced by bexarotene observed in both SPIRIT trials is illustrated in FIG. 1A. […] These findings prompted the search for biomarkers which can predict bexarotene sensitivity and identify a subgroup of non small cell lung cancer patients whose survival could be prolonged by bexarotene treatment.
FIG. 1. Sub-population analysis and study design. […] Kaplan-Meier survival estimates in patients gave median survivals of 170 days, 263 days, and 371 days for these three groups, respectively. […] B. Overview of genome-wide association study design. In Stage I discovery phase, 150 samples (74 cases and 76 controls) were genotyped using the Affymetrix GeneChip 500K Mapping Array Set (Nsp array+Sty array) containing 500,000 SNPs following the Affymetrix standard protocol. 255 SNPs were then selected for stage II study. In Stage II, 400 samples were individually genotyped using the 255 Sequenom iPLEX SNP assays, including 147 samples (minus one case and two controls) used in the Stage I for the Verification group and 253 new samples for the Replication group. In the Replication group, 129 samples were included from the patients with middle level of triglyceride percentile (HTG Mid).

The next data set relates to MDA-PR cells. Description: Growth and resensitization of paclitaxel-resistant MDA-MB-231 cells. Type of data set: cell-based, human. Particulars: 30 nM paclitaxel (3 days on, 7 days off) in absence or presence of 1 μM Targretin (10 days on), 3 months. As to the method:
(§1) The human breast cancer cell line MDA-MB-231 was obtained from the American Type Culture Collection (Manassas, Va., USA), and MDA-MB-231 cells were routinely cultured in RPMI-1640 supplemented with 10% fetal bovine serum and 2 mM glutamine in 5% CO2. Bexarotene was synthesized at Ligand Pharmaceuticals Inc. (San Diego, Calif., USA), and paclitaxel was purchased from Sigma Chemicals (St. Louis, Mo., USA). The protocol for establishment of paclitaxel-resistant MDA-MB-231 cells and resensitization to paclitaxel by bexarotene treatment was described previously (5). Briefly, MDA-MB-231 cells were exposed to regimens on a 10-day cycle: a 3-day treatment with 30 nM paclitaxel followed by a 7-day exposure to control medium. […] These MDA-PR cells were then treated with the combination of 30 nM paclitaxel (3 days on and 7 days off) in the absence or presence of 1 μM Targretin (10 days on) in a new 10-day cycle for 3 months.

The conditions of data set [2]: bexarotene-treated patients, two SPIRIT trials; cited from earlier work.
For the next data set, the system named is LCP1. Description: RNA microarray of LCP1 expression in paclitaxel-resistant MDA-MB-231 (MDA-PR) cells. In kind it is cell-based, human. As to conditions: for effect on LCP1 expression (in words): paclitaxel alone, or bexarotene together with paclitaxel. How it is done: as §1
The test system of data set [3] is non small cell lung cancer. Particulars: addition of bexarotene to chemotherapy, first-line, advanced non small cell lung cancer, both phase III trials; cited from earlier work.

With `C=C(c1ccc(C(=O)O)cc1)c1cc2c(cc1C)C(C)(C)CCC2(C)C` [bexarotene], the “median survival (Kaplan-Meier estimate)” value is reported as 371 days in data set [1] ('HTG Hi' group: 67% to maximum triglyceride), 170 days in data set [1] ('HTG Lo' group: triglyceride up to 33% of maximum level) and 263 days in data set [1] ('HTG Mid' group: middle third (33% to 67%)). The “effect on growth / paclitaxel sensitivity of MDA-PR cells” value with MDA-PR cells was “re-sensitized to paclitaxel”. Moreover, the “patients who developed NCI grade 3 or higher hypertriglyceridemia” value in data set [2] was 30-40%. Besides, the “LCP1 expression up-regulation compared to MDA-PR cells” value in the data set with LCP1 (30 nM paclitaxel/1 μM bexarotene for 3 months, p-value=6.86×10^−6) was found to be 3.8 fold. The “effect on LCP1 expression (in words)” value with LCP1 is reported as “significantly up-regulated”. The “overall survival in the intent-to-treat population” value in data set [3] is listed as “did not improve overall survival”.

As for `CC(=O)O[C@H]1C(=O)[C@@]2(C)[C@H]([C@H](OC(=O)c3ccccc3)[C@]3(O)C[C@H](OC(=O)[C@H](O)[C@@H](NC(=O)c4ccccc4)c4ccccc4)C(C)=C1C3(C)C)[C@]1(OC(C)=O)CO[C@@H]1C[C@@H]2O` [paclitaxel], in the data set on MDA-PR cells, the “effect on growth / paclitaxel sensitivity of MDA-PR cells” value was “no effect”. For the same compound, the “effect on LCP1 expression (in words)” value in the data set on LCP1 is “no effect”.
